Tests used:
male Crl: CD (SD) rat = test: Preparation of dexamethasone-induced growth failure model rat (Example 1); assay type: in vivo; conditions: continuous s.c. dexamethasone 0.5 or 1 mg/mL, 28 days
Method: Osmotic pumps (MINI-OSMOTIC PUMP Model 2004, available from DURECT CORPORATION, flow rate: 0.25 μL/hr, for 28 days) were charged with dexamethasone (dexamethasone injection “KS”, available from Kyoritsuseiyaku Corporation) having a concentration of 0.5 mg/mL (Group 2) or 1 mg/mL (Group 3), and one osmotic pump was embedded in the hypoderm of the back of each 7-week-old male Crl: CD (SD) rat (5 animals/group, a total of 10 animals). Additionally, in a control group (Group 1, 5 animals), one osmotic pump (the same as above) charged with saline was embedded in the hypoderm of the back of each animal. Then the animals were fed for 28 days, and their bodyweight was measured twice or three times a week. On the final day, after blood collection under isoflurane anesthesia followed by immediate euthanasia, the right femur was extracted, and the length was measured. Plasma was separated from the collected blood, and cholesterol concentration was determined by using cholesterol E-Test Wako (available from Wako Pure Chemical Industries, Ltd.), and the plasma corticosterone concentration was determined by using a Corticosterone, ELISA Kit, AssayMax (96 well) (EC3001-1, available from ASSAYPRO LLC.).

[1] = test system: rat growth failure induced by dexamethasone; test: Follow-up administration test of CNP derivative (A) for rat growth failure induced by dexamethasone (Example 4); assay type: in vivo; conditions: n=5
Method: Osmotic pumps (MINI-OSMOTIC PUMP Model 2004, available from DURECT CORPORATION, flow rate: 0.25 μL/hr, for 28 days) were charged with a 0.67 mg/mL solution of dexamethasone (dexamethasone injection “KS”, available from Kyoritsuseiyaku Corporation), and one osmotic pump was embedded in the hypoderm of the back of each 4-week-old male Crlj:WI (Wistar) rat (5 animals/group, Group 2 and Group 3), and the animals were fed for 14 days. […] During the feeding period, transitions of the body weight, the body length and the tail length were measured, and on the final day, blood was collected from the abdominal aorta and the animal was caused to die under isoflurane anesthesia, the right femur was extracted and its length was measured.

[2] = dexamethasone 0.67 mg/mL pump alone or with CNP derivative (A) 15 mg/mL pump for 28 days from Day 14
[3] = dexamethasone 0.67 mg/mL pump, 4-week-old male Wistar rat, baseline before CNP derivative (A)

`C[C@@H]1C[C@H]2[C@@H]3CCC4=CC(=O)C=C[C@]4(C)[C@@]3(F)[C@@H](O)C[C@]2(C)[C@@]1(O)C(=O)CO` [Dexamethasone, dexamethasone] was tested, and the “body weight (in words)” value (male Crl: CD (SD) rat; SD rat (FIG. 1)) was “decreased dose-dependently”, the “femur length (in words)” value (male Crl: CD (SD) rat; SD rat (FIG. 2)) was “shortened dose-dependently” and the “Body weight at dissection (Day 28 of CNP derivative (A) administration)” value ([1]; dexamethasone 0.67 mg/mL pump 28 days alone or with CNP derivative (A) 15 mg/mL pump for 28 days from Day 14, male Wistar rat) was 308 ± 20 g. For the same compound, the “Body length at dissection (Day 28 of CNP derivative (A) administration)” value [1, 2] was 204 ± 3 mm, the “Body length variation (Δ value) from starting of administration of CNP derivative (A)” value [1, 2] was “(30 ± 1) mm” and the “Body weight variation (Δ value) from starting of administration of CNP derivative (A)” value [1, 2] was “(129 ± 9) g”. For the same compound, the “Right femur length only at dissection” value [1, 2] was 32.9 ± 0.7 mm, the “Tail length at dissection (Day 28 of CNP derivative (A) administration)” value [1, 2] was 202 ± 8 mm and the “Tail length variation (Δ value) from starting of administration of CNP derivative (A)” value [1, 2] was “(25 ± 7) mm”. The “Body weight, Day 14 of dexamethasone administration (prior to administration of CNP derivative (A))” value ([1]; dexamethasone 0.67 mg/mL pump, 4-week-old male Wistar rat, baseline before CNP derivative (A), mean ± SD) was 179 ± 12 g, the “Body length, Day 14 of dexamethasone administration (prior to administration of CNP derivative (A))” value [1, 3] was 174 ± 4 mm and the “Tail length, Day 14 of dexamethasone administration (prior to administration of CNP derivative (A))” value [1, 3] was 177 ± 7 mm.
